Assay results as given in ChEMBL document CHEMBL5036372, “QuatCy-I2 and MHI-I2 in Photodynamic Therapy” (ACS Med Chem Lett, 2022).
pIC50: −log10 of the molar value.

What was measured:
[1] = system: U-87 MG; test: Dark toxicity against human U-87 MG cells incubated for 48 hrs by Alamar blue assay; assay type: cell-based, U-87MG ATCC
[2] = Terminal half life in CD-1 mouse at 25 nmol, iv measured upto 480 mins by UV-Vis spectrophotometer method; assay type: ADME, organism-based; conditions: in vivo, read-out: beta t1/2
[3] = Phototherapeutic index, ratio of IC50 for dark cytotoxicity against human U-87 MG cells to IC50 for light cytotoxicity against human U-87 MG cells preincubated for 6 to 24 hrs followed by light irradiation for 20 min and measured after 24 hrs dark incubation by Alamar blue assay; assay type: cell-based, U-87MG ATCC; conditions: time 6-24 hrs, read-out: Ratio IC50
[4] = Biodistribution in lymph node of mouse implanted with mouse NIT-1 cells at 35 nmol, iv incubated for 4 to 8 hrs by fluorescence imaging analysis; assay type: ADME, organism-based; conditions: in vivo, time 4-8 hrs
[5] = Drug localization in kidney of CD-1 mouse at 25 nmol, iv measured after 4 hrs by fluorescence imaging analysis; assay type: ADME, organism-based; conditions: in vivo
[6] = system: Mus musculus; test: Antitumor activity against mouse implanted with mouse NIT-1 cells assessed as tumor to background ratio at 35 nmol, iv incubated for 4 hrs by fluorescence imaging analysis; assay type: functional
[7] = Biodistribution in bone marrow of mouse implanted with mouse NIT-1 cells at 35 nmol, iv incubated for 4 to 8 hrs by fluorescence imaging analysis; assay type: ADME, organism-based; conditions: in vivo, time 4-8 hrs
[8] = Drug localization in lungs of CD-1 mouse at 25 nmol, iv measured after 4 hrs by fluorescence imaging analysis; assay type: ADME, organism-based, Lung; conditions: in vivo
[9] = Clearance in CD-1 mouse at 25 nmol, iv measured upto 480 mins by UV-Vis spectrophotometer method; assay type: ADME, organism-based; conditions: in vivo
[10] = Drug localization in liver of CD-1 mouse at 25 nmol, iv measured after 4 hrs by fluorescence imaging analysis; assay type: ADME, organism-based; conditions: in vivo
[11] = Half life in CD-1 mouse blood at 25 nmol, iv measured upto 480 mins by UV-Vis spectrophotometer method; assay type: ADME, organism-based
[12] = Biodistribution in peripheral tissue of mouse implanted with mouse NIT-1 cells at 35 nmol, iv incubated for 4 to 8 hrs by fluorescence imaging analysis; assay type: ADME, organism-based; conditions: in vivo, time 4-8 hrs
[13] = Drug localization in duodenum of CD-1 mouse at 25 nmol, iv measured after 4 hrs by fluorescence imaging analysis; assay type: ADME, organism-based; conditions: in vivo

Row | half-life [2] | Drug uptake [4] | Drug uptake [5] | Drug uptake [7] | Drug uptake [8] | clearance [9] | Drug uptake [10] | half-life [11] | Drug uptake [12] | Drug uptake [13] | SMILES | pIC50 [1] | selectivity ratio at 24 h [3] | Ratio [6]
1 |  |  |  |  |  |  |  |  |  |  | CC1(C)C(/C=C/C2=C(Cl)C(=C/C=C3/N(CCCCCC(=O)O)c4ccccc4C3(C)C)/C[N+](C)(C)C2)=[N+](CCCCCC(=O)O)c2ccccc21 | < 4.00 |  | 
2 |  |  |  |  |  |  |  |  |  |  | CC1(C)C(/C=C/C2=C(Cl)C(=C/C=C3/N(CCCCCC(=O)O)c4ccccc4C3(C)C)/CCC2)=[N+](CCCCCC(=O)O)c2ccccc21 | 4.72 |  | 
3 | 0.917 h | Active | Active | Active | Not Active | 5 mL/min/kg | Active |  |  |  | CC1(C)C(/C=C/C2=C(Cl)C(=C/C=C3/N(CCCCCC(=O)O)c4ccc(I)cc4C3(C)C)/C[N+](C)(C)C2)=[N+](CCCCCC(=O)O)c2ccc(I)cc21 | 4.20 | 72.8 | 8.98
4 |  |  |  |  |  | 0.2 mL/min/kg | Active | 1.93 h | Active | Active | CC1(C)C(/C=C/C2=C(Cl)C(=C/C=C3/N(CCCCCC(=O)O)c4ccc(I)cc4C3(C)C)/CCC2)=[N+](CCCCCC(=O)O)c2ccc(I)cc21 | 4.94 | 2.56 | 6.5
